Measurements: PubChem BioAssay (NCI)
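The compound was tested at five concentrations on cells cultured in 96-well plates, with a 48-hour exposure period. The concentration for 50% growth inhibition is given as GI50. TGI: concentration producing complete growth inhibition.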

Columns and labels:
Assay in all cases: growth of human tumour cells (NCI), 48 h
MOLT-4 leukemia = tested on: MOLT-4 leukemia
NCI/ADR-RES ovarian = tested on: NCI/ADR-RES ovarian
EKVX NSCLC = tested on: EKVX NSCLC
SK-OV-3 ovarian = tested on: SK-OV-3 ovarian
DU-145 prostate = tested on: DU-145 prostate
PC-3 prostate = tested on: PC-3 prostate
SNB-19 CNS = tested on: SNB-19 CNS
SNB-75 CNS = tested on: SNB-75 CNS
RXF 393 renal = tested on: RXF 393 renal
HCT-15 colon = tested on: HCT-15 colon
NCI-H522 lung = tested on: NCI-H522 lung
SK-MEL-2 melanoma = tested on: SK-MEL-2 melanoma
OVCAR-4 ovarian = tested on: OVCAR-4 ovarian
BT-549 breast = tested on: BT-549 breast
SF-295 CNS = tested on: SF-295 CNS
MDA-MB-231 breast = tested on: MDA-MB-231 breast
KM12 colon = tested on: KM12 colon
NCI-H226 lung = tested on: NCI-H226 lung
LOX IMVI melanoma = tested on: LOX IMVI melanoma
MALME-3M melanoma = tested on: MALME-3M melanoma
SK-MEL-5 melanoma = tested on: SK-MEL-5 melanoma
SW-620 colon = tested on: SW-620 colon
CCRF-CEM leukemia = tested on: CCRF-CEM leukemia
IGROV1 ovarian = tested on: IGROV1 ovarian
ACHN renal = tested on: ACHN renal
HCT-116 colon = tested on: HCT-116 colon
SN12C renal = tested on: SN12C renal
786-0 renal = tested on: 786-0 renal
CAKI-1 renal = tested on: CAKI-1 renal
HOP-62 NSCLC = tested on: HOP-62 NSCLC
MDA-MB-435 = tested on: MDA-MB-435
HT29 colon = tested on: HT29 colon
SF-539 CNS = tested on: SF-539 CNS
SK-MEL-28 melanoma = tested on: SK-MEL-28 melanoma
UO-31 renal = tested on: UO-31 renal
SF-268 CNS = tested on: SF-268 CNS
NCI-H460 lung = tested on: NCI-H460 lung
A549 NSCLC = tested on: A549 NSCLC
A498 renal = tested on: A498 renal
UACC-257 melanoma = tested on: UACC-257 melanoma
HCC-2998 colon = tested on: HCC-2998 colon
MCF7 breast = tested on: MCF7 breast
TK-10 renal = tested on: TK-10 renal
HS 578T breast = tested on: HS 578T breast
OVCAR-8 ovarian = tested on: OVCAR-8 ovarian
U251 CNS = tested on: U251 CNS
UACC-62 melanoma = tested on: UACC-62 melanoma
COLO 205 colon = tested on: COLO 205 colon
T-47D breast = tested on: T-47D breast
HOP-92 NSCLC = tested on: HOP-92 NSCLC
OVCAR-3 ovarian = tested on: OVCAR-3 ovarian
OVCAR-5 ovarian = tested on: OVCAR-5 ovarian
HL-60(TB) leukemia = tested on: HL-60(TB) leukemia

SMILES: Oc1cc(Cn2cnc3c(Cl)nc(Cl)nc32)ccc1C12CC3CC(CC(C3)C1)C2
- GI50 (MOLT-4 leukemia): 3.72 µM
- TGI (MOLT-4 leukemia): 11.2 µM
- GI50 (NCI/ADR-RES ovarian): 21.9 µM
- TGI (NCI/ADR-RES ovarian): 57.2 µM
- GI50 (EKVX NSCLC): 23.8 µM
- TGI (EKVX NSCLC): 53.1 µM
- GI50 (SK-OV-3 ovarian): 24.7 µM
- TGI (SK-OV-3 ovarian): 55.1 µM
- GI50 (DU-145 prostate): 16.2 µM
- TGI (DU-145 prostate): 29.7 µM
- GI50 (PC-3 prostate): 15.5 µM
- TGI (PC-3 prostate): 28.9 µM
- GI50 (SNB-19 CNS): 17.6 µM
- TGI (SNB-19 CNS): 31.4 µM
- GI50 (SNB-75 CNS): 16.4 µM
- TGI (SNB-75 CNS): 32.2 µM
- GI50 (RXF 393 renal): 15.2 µM
- TGI (RXF 393 renal): 29.3 µM
- GI50 (HCT-15 colon): 16.3 µM
- TGI (HCT-15 colon): 29.8 µM
- GI50 (NCI-H522 lung): 15.2 µM
- TGI (NCI-H522 lung): 28.5 µM
- GI50 (SK-MEL-2 melanoma): 18.4 µM
- TGI (SK-MEL-2 melanoma): 38 µM
- GI50 (OVCAR-4 ovarian): 16.4 µM
- TGI (OVCAR-4 ovarian): 30 µM
- GI50 (BT-549 breast): 17.5 µM
- TGI (BT-549 breast): 34.4 µM
- GI50 (SF-295 CNS): 20.5 µM
- TGI (SF-295 CNS): 47.9 µM
- GI50 (MDA-MB-231 breast): 15 µM
- TGI (MDA-MB-231 breast): 30.3 µM
- GI50 (KM12 colon): 17.5 µM
- TGI (KM12 colon): 34.4 µM
- GI50 (NCI-H226 lung): 23.3 µM
- TGI (NCI-H226 lung): 63.7 µM
- GI50 (LOX IMVI melanoma): 4.12 µM
- TGI (LOX IMVI melanoma): 18.6 µM
- GI50 (MALME-3M melanoma): 11.8 µM
- TGI (MALME-3M melanoma): 27.8 µM
- GI50 (SK-MEL-5 melanoma): 15 µM
- TGI (SK-MEL-5 melanoma): 32 µM
- GI50 (SW-620 colon): 24.6 µM
- TGI (SW-620 colon): 56.8 µM
- GI50 (CCRF-CEM leukemia): 2.17 µM
- TGI (CCRF-CEM leukemia): 5.78 µM
- GI50 (IGROV1 ovarian): 15.8 µM
- TGI (IGROV1 ovarian): 30 µM
- GI50 (ACHN renal): 17.9 µM
- TGI (ACHN renal): 31.7 µM
- GI50 (HCT-116 colon): 14 µM
- TGI (HCT-116 colon): 26.9 µM
- GI50 (SN12C renal): 16.5 µM
- TGI (SN12C renal): 32.2 µM
- GI50 (786-0 renal): 18.5 µM
- TGI (786-0 renal): 34.4 µM
- GI50 (CAKI-1 renal): 15.4 µM
- TGI (CAKI-1 renal): 31.3 µM
- GI50 (HOP-62 NSCLC): 16.2 µM
- TGI (HOP-62 NSCLC): 29.8 µM
- GI50 (MDA-MB-435): 19.9 µM
- TGI (MDA-MB-435): 48.6 µM
- GI50 (HT29 colon): 16 µM
- TGI (HT29 colon): 29.5 µM
- GI50 (SF-539 CNS): 23.6 µM
- TGI (SF-539 CNS): 45.1 µM
- GI50 (SK-MEL-28 melanoma): 16.9 µM
- TGI (SK-MEL-28 melanoma): 31 µM
- GI50 (UO-31 renal): 17.3 µM
- TGI (UO-31 renal): 31.1 µM
- GI50 (SF-268 CNS): 14.4 µM
- TGI (SF-268 CNS): 28 µM
- GI50 (NCI-H460 lung): 16.4 µM
- TGI (NCI-H460 lung): 30.2 µM
- GI50 (A549 NSCLC): 18.1 µM
- TGI (A549 NSCLC): 33.2 µM
- GI50 (A498 renal): > 100 µM
- TGI (A498 renal): > 100 µM
- GI50 (UACC-257 melanoma): 19 µM
- TGI (UACC-257 melanoma): 39.2 µM
- GI50 (HCC-2998 colon): 16 µM
- TGI (HCC-2998 colon): 30.4 µM
- GI50 (MCF7 breast): 15 µM
- TGI (MCF7 breast): 28.3 µM
- GI50 (TK-10 renal): 19.5 µM
- TGI (TK-10 renal): 38.8 µM
- GI50 (HS 578T breast): 49.6 µM
- TGI (HS 578T breast): > 100 µM
- GI50 (OVCAR-8 ovarian): 23.2 µM
- TGI (OVCAR-8 ovarian): 58 µM
- GI50 (U251 CNS): 16.6 µM
- TGI (U251 CNS): 30.2 µM
- GI50 (UACC-62 melanoma): 16.8 µM
- TGI (UACC-62 melanoma): 30.5 µM
- GI50 (COLO 205 colon): 19.9 µM
- TGI (COLO 205 colon): 37.2 µM
- GI50 (T-47D breast): 21.8 µM
- TGI (T-47D breast): 80.6 µM
- GI50 (HOP-92 NSCLC): 14.6 µM
- TGI (HOP-92 NSCLC): 27.8 µM
- GI50 (OVCAR-3 ovarian): 18 µM
- TGI (OVCAR-3 ovarian): 36.3 µM
- GI50 (OVCAR-5 ovarian): 20.2 µM
- TGI (OVCAR-5 ovarian): 45.7 µM
- GI50 (HL-60(TB) leukemia): 4.36 µM
- TGI (HL-60(TB) leukemia): 15.7 µM
